Consider 21 compounds from publication PMC2248166, “Quantitative peptide binding motifs for 19 human and mouse MHC class I molecules derived using positional scanning combinatorial peptide libraries” (Immunome Research, 2008).

Where a SMILES comes first, the peptide text is derived from it.

This test addresses HLA B*1503 (Homo sapiens, UniProt P01889, A329T/A93T/A95T/C349S/D201E/D98Y/E187L/E204Q/K202T/N87E/Q94N/R155S/R180L/S121R/S35A/V306I/V36M/Y140S/Y91S). As to the kind of experiment: biochemical. Type of test: binding.
For `CC[C@H](C)[C@H](NC(=O)[C@H](CCSC)NC(=O)[C@H](C)NC(=O)[C@H](C)NC(=O)[C@@H](N)Cc1ccccc1)C(=O)N[C@H](C(=O)N[C@@H](CCCNC(=N)N)C(=O)N[C@@H](CO)C(=O)N[C@@H](Cc1ccccc1)C(=O)O)[C@@H](C)CC` [3102.1048] (H-FAAMIIRSF-OH), the IC50 turned out to be 1.3 nM. This counts as single-digit nanomolar.

For `CSCC[C@H](NC(=O)[C@H](CC(C)C)NC(=O)[C@H](CO)NC(=O)[C@H](CC(N)=O)NC(=O)[C@H](CC(N)=O)NC(=O)[C@H](CC(C)C)NC(=O)[C@@H](N)CS)C(=O)N[C@@H](CO)C(=O)N[C@@H](Cc1ccccc1)C(=O)O` [3102.1050] (H-CLNNSLMSF-OH), the half-inhibitory concentration (IC50) was 0.77 nM. For `CC(C)C[C@H](NC(=O)[C@H](CO)NC(=O)[C@H](CO)NC(=O)[C@@H](NC(=O)[C@H](CCC(=O)O)NC(=O)[C@@H](NC(=O)[C@H](CO)NC(=O)[C@H](CCCCN)NC(=O)[C@@H](N)CC(C)C)C(C)C)[C@@H](C)O)C(=O)O` [3102.1056] (H-LKSVETSSL-OH) the value was 3.8 nM; for `CC(C)C[C@H](NC(=O)[C@@H](N)CC(N)=O)C(=O)N[C@@H](Cc1ccc(O)cc1)C(=O)N[C@@H](Cc1ccccc1)C(=O)N[C@@H](CS)C(=O)N[C@H](C(=O)N[C@@H](CCCCN)C(=O)N[C@@H](CO)C(=O)N[C@@H](Cc1ccccc1)C(=O)O)[C@@H](C)O` [3102.1057] (H-NLYFCTKSF-OH), 4.3 nM. For `CC[C@H](C)[C@H](NC(=O)[C@@H](NC(=O)[C@@H](NC(=O)[C@H](CCCNC(=N)N)NC(=O)[C@H](CC(N)=O)NC(=O)[C@H](Cc1ccccc1)NC(=O)[C@H](CO)NC(=O)[C@@H](N)C(C)C)C(C)C)C(C)C)C(=O)N[C@@H](Cc1ccccc1)C(=O)O` [3102.1059] (H-VSFNRVVIF-OH) the value was 1.1 nM; for `CC(C)C[C@H](NC(=O)[C@H](CC(N)=O)NC(=O)[C@H](CC(C)C)NC(=O)[C@H](CCCNC(=N)N)NC(=O)[C@H](CCCNC(=N)N)NC(=O)[C@H](CO)NC(=O)[C@H](CCCCN)NC(=O)[C@@H](N)CO)C(=O)N[C@@H](Cc1ccccc1)C(=O)O` [3102.1061] (H-SKSRRLNLF-OH), 2.4 nM; for `CC(C)[C@H](NC(=O)[C@H](CC(=O)O)NC(=O)[C@H](CCC(=O)O)NC(=O)[C@@H](NC(=O)[C@H](CO)NC(=O)[C@@H](N)CCCCN)C(C)C)C(=O)N[C@@H](CO)C(=O)N[C@@H](C)C(=O)N[C@@H](Cc1ccccc1)C(=O)O` [3102.1062] (H-KSVEDVSAF-OH), 14 nM. For `CC[C@H](C)[C@H](N)C(=O)N[C@@H](CCSC)C(=O)N[C@@H](CO)C(=O)N[C@@H](CC(C)C)C(=O)N[C@@H](Cc1ccccc1)C(=O)N[C@@H](CO)C(=O)N[C@H](C(=O)N[C@@H](CO)C(=O)N[C@@H](C)C(=O)O)[C@@H](C)O` [3102.1063] (H-IMSLFSTSA-OH) the value was 7.7 nM. Turning to `CC[C@H](C)[C@H](N)C(=O)N[C@@H](CO)C(=O)N[C@@H](CO)C(=O)N[C@@H](CCCNC(=N)N)C(=O)N[C@@H](CCC(=O)O)C(=O)N[C@@H](CO)C(=O)N[C@H](C(=O)N[C@@H](CO)C(=O)N[C@@H](Cc1ccccc1)C(=O)O)C(C)C` [3102.1068] (H-ISSRESVSF-OH), the IC50 was found to be 12 nM. Against the preceding compound, the IC50 is about 1.6-fold higher. As for `CC[C@H](C)[C@H](NC(=O)[C@@H]1CCCN1C(=O)[C@H](CO)NC(=O)CNC(=O)[C@H](CC(=O)O)NC(=O)[C@H](CC(C)C)NC(=O)[C@@H](NC(=O)[C@H](CCCCN)NC(=O)[C@@H](N)Cc1ccccc1)C(C)C)C(=O)O` [3102.1070] (H-FKVLDGSPI-OH), the figure is 0.82 nM; as for `CC[C@H](C)[C@H](NC(=O)[C@H](CC(N)=O)NC(=O)[C@@H](NC(=O)[C@H](CCCCN)NC(=O)[C@@H](N)Cc1ccccc1)[C@@H](C)CC)C(=O)N[C@@H](Cc1ccccc1)C(=O)N[C@@H](CCSC)C(=O)N[C@@H](C)C(=O)N[C@@H](Cc1ccccc1)C(=O)O` [3102.1074] (H-FKINIFMAF-OH), 10 nM. `CC[C@H](C)[C@H](NC(=O)[C@H](CC(N)=O)NC(=O)[C@H](Cc1c[nH]cn1)NC(=O)[C@H](CCC(N)=O)NC(=O)[C@@H](N)C(C)C)C(=O)N[C@@H](CCCCN)C(=O)N[C@@H](Cc1c[nH]cn1)C(=O)N[C@@H](CO)C(=O)N[C@@H](Cc1ccccc1)C(=O)O` [3102.1075] (H-VQHNIKHSF-OH) displayed an IC50 of 0.2 nM. For `CSCC[C@H](NC(=O)[C@H](CO)NC(=O)[C@H](CCCNC(=N)N)NC(=O)[C@@H]1CCCN1C(=O)[C@H](Cc1ccccc1)NC(=O)[C@H](CCCCN)NC(=O)[C@H](CO)NC(=O)[C@H](CCCCN)NC(=O)[C@H](C)N)C(=O)O` [3102.1076] (H-AKSKFPRSM-OH) the value was 0.26 nM; for `CC[C@H](C)[C@H](NC(=O)CNC(=O)[C@H](C)NC(=O)[C@H](Cc1ccc(O)cc1)NC(=O)[C@H](CCCCN)NC(=O)[C@@H](N)CO)C(=O)N[C@@H](CC(N)=O)C(=O)N[C@H](C(=O)N[C@@H](CC(C)C)C(=O)O)[C@@H](C)CC` [3102.1077] (H-SKYAGINIL-OH), 0.27 nM; for `C[C@@H](O)[C@H](N)C(=O)N[C@@H](CCCCN)C(=O)N[C@@H](Cc1ccccc1)C(=O)N[C@H](C(=O)N[C@@H](CC(=O)O)C(=O)N[C@@H](Cc1ccccc1)C(=O)N[C@@H](CCC(N)=O)C(=O)N[C@@H](CC(=O)O)C(=O)N[C@@H](Cc1ccccc1)C(=O)O)[C@@H](C)O` [3102.1078] (H-TKFTDFQDF-OH), 2.2 nM. For `CC[C@H](C)[C@H](NC(=O)[C@H](CC(N)=O)NC(=O)[C@H](CC(N)=O)NC(=O)[C@H](Cc1ccccc1)NC(=O)[C@@H]1CCCN1C(=O)[C@H](CCCCN)NC(=O)[C@H](CCCNC(=N)N)NC(=O)[C@H](CCC(N)=O)NC(=O)[C@@H](N)Cc1ccccc1)C(=O)O` [3102.1079] (H-FQRKPFNNI-OH) the value was 8.9 nM.

Take `CC[C@H](C)[C@H](NC(=O)[C@H](CCCCN)NC(=O)[C@@H](N)CCCNC(=N)N)C(=O)N[C@@H](CO)C(=O)N[C@@H](CO)C(=O)N[C@@H](CCCCN)C(=O)N[C@@H](CC(N)=O)C(=O)N[C@@H](CO)C(=O)N[C@@H](CCSC)C(=O)O` [3102.1080] (H-RKISSKNSM-OH): half-maximal inhibition (IC50) required 0.11 nM. As for `CC[C@H](C)[C@H](NC(=O)[C@H](CO)NC(=O)[C@H](CCC(N)=O)NC(=O)[C@H](CCC(N)=O)NC(=O)[C@H](CC(C)C)NC(=O)[C@H](Cc1ccccc1)NC(=O)[C@H](CC(C)C)NC(=O)[C@@H](N)C(C)C)C(=O)N[C@@H](Cc1ccccc1)C(=O)O` [3102.1081] (H-VLFLQQSIF-OH), the figure is 0.61 nM; as for `CC[C@H](C)[C@H](NC(=O)[C@H](CO)NC(=O)[C@H](CO)NC(=O)[C@H](CCC(=O)O)NC(=O)[C@H](CC(N)=O)NC(=O)[C@H](Cc1ccccc1)NC(=O)[C@@H](NC(=O)[C@H](CCC(N)=O)NC(=O)[C@@H](N)Cc1ccccc1)C(C)C)C(=O)O` [3102.1082] (H-FQVFNESSI-OH), 5 nM; as for `CC(C)C[C@H](NC(=O)[C@H](CCCCN)NC(=O)[C@H](CC(N)=O)NC(=O)[C@@H](NC(=O)[C@H](Cc1ccccc1)NC(=O)[C@H](CS)NC(=O)[C@@H](NC(=O)[C@H](CCCCN)NC(=O)[C@@H](N)CCCCN)C(C)C)C(C)C)C(=O)O` [3102.1086] (H-KKVCFVNKL-OH), 4.5 nM. As for `CC(C)C[C@H](NC(=O)[C@H](C)NC(=O)[C@H](CCC(N)=O)NC(=O)[C@H](CCC(N)=O)NC(=O)[C@@H](NC(=O)[C@@H](N)Cc1ccccc1)[C@@H](C)O)C(=O)N[C@@H](CO)C(=O)N[C@@H](CO)C(=O)N[C@@H](Cc1ccccc1)C(=O)O` [3102.1087] (H-FTQQALSSF-OH), the figure is 6.4 nM.

For orientation: IC50 means the point on the concentration scale where inhibition reaches its midpoint.
